Reference: article PMC5472631 (2017)

Legend:
[1] = system: Pu24T (c-myc G-quadruplex DNA) (DNA, G4) TGAGGGTGGTGAGGGTGGGGAAGG; assay: ligand fluorescence titration; details: 100 mM KCl, 10 mM potassium phosphate; pH 7.0, 25 °C; site 1 of 2
[2] = system: Pu24T (c-myc G-quadruplex DNA) (DNA, G4) TGAGGGTGGTGAGGGTGGGGAAGG; assay: ITC; details: 100 mM KCl, 10 mM potassium phosphate; pH 7.0, 25 °C; site 1 of 2
[3] = system: Tel7, d-(T2AG3T)4 (DNA, G4) TTAGGGT; assay: ligand fluorescence titration; details: 70 mM Na+; 25 °C
[4] = system: Pu24T (c-myc G-quadruplex DNA) (DNA, G4) TGAGGGTGGTGAGGGTGGGGAAGG; assay: NMR solution structure (NOESY, restrained MD); details: 298 K; D/N = 2.0; stacks at 5' and 3' G-tetrads
[5] = system: Pu24T (c-myc G-quadruplex DNA) (DNA, G4) TGAGGGTGGTGAGGGTGGGGAAGG; assay: UV melting at 295 nm; details: 100 mM KCl, 10 mM potassium phosphate; pH 7.0; D/N = 2.0; Tm 70.0 to 80.0 °C
[6] = system: c-kit21up (c-kit G-quadruplex DNA) (DNA, G4) CGGGCGGGCGCGAGGGAGGGG; assay: ligand fluorescence titration; details: 100 mM KCl, 10 mM potassium phosphate; pH 7.0, 25 °C

Kd1 [1] | K1 [2] | Kd1 [3] | ΔTm [5] | Kd1 [6] | SMILES | binding [4]
1 µM | 7.35×10^5 ± 1.06 M^-1 | – | – | – | COc1ccc([C@@H]2CC(=O)c3c(O)cc(O[C@@H]4O[C@H](CO[C@@H]5O[C@@H](C)[C@H](O)[C@@H](O)[C@H]5O)[C@@H](O)[C@H](O)[C@H]4O)cc3O2)cc1O | –
47 µM | 3.34×10^5 ± 1.50 M^-1 | – | – | – | O=c1c(-c2ccc(O)cc2)coc2cc(O)ccc12 | –
1.3 µM | – | – | – | – | O=c1c(O)c(-c2ccc(O)cc2)oc2cc(O)cc(O)c12 | –
1.5 µM | – | – | – | – | O=c1cc(-c2ccc(O)c(O)c2)oc2cc(O)cc(O)c12 | –

Further lines, the molecule ahead of its results:

SMILES | Kd1 [1] | K1 [2] | Kd1 [3] | ΔTm [5] | Kd1 [6] | binding [4]
O=c1c(O)c(-c2cc(O)c(O)c(O)c2)oc2cc(O)cc(O)c12 | 1.4 µM | 1.65×10^5 ± 0 M^-1 | – | – | – | –
C[C@@H]1O[C@@H](OC[C@H]2O[C@@H](Oc3c(-c4ccc(O)c(O)c4)oc4cc(O)cc(O)c4c3=O)[C@H](O)[C@@H](O)[C@@H]2O)[C@H](O)[C@H](O)[C@H]1O | 17.1 µM | 7.23 × 10^5 ± 8.60 M-1 | – | – | – | –
O=c1c(O)c(-c2ccc(O)c(O)c2)oc2cc(O)cc(O)c12 | – | 1.57 × 10^7 ± 2.14 M-1 | 2.13 µM | 10 °C | 1.12 µM | yes
O=c1c(-c2ccc(O)cc2)coc2c([C@@H]3O[C@H](CO)[C@@H](O)[C@H](O)[C@H]3O)c(O)ccc12 | 88.8 µM | 1.10×10^4 ± 7.75 M^-1 | – | – | – | –
